Assay results published in patent publication US6835382B2, “Ii peptide therapeutics to enhance antigen presentation” (University of Massachusetts, priority 1996, dated 2004).
Non-standard residues stand in square brackets, D forms with d. Cit = NC(=O)NCCC[C@H](N)C(=O)O; Orn = NCCC[C@H](N)C(=O)O

What was measured:
[1] = target: T1, murine E^d MHC class II allele (Mus musculus, UniProt P01904+P01915); test: simultaneous assay, E^d allele (A20 APC, G28.C9 T hybridoma, HEL106-116; HT-2 [3H]TdR readout); format: cell-based; parameters: The A20 and CH27 B cell lymphoma lines express H-2^d and H-2^k alleles, respectively; endogenous in cells; host or cells: A20 B cell lymphoma (mitomycin C-treated or paraformaldehyde-fixed); settings: for Times Baseline Response, Ed: Table 3; for activity in simultaneous assay on E^d and E^k, in words: Tables 12 and 18
T1 sequence (P01904 26-255): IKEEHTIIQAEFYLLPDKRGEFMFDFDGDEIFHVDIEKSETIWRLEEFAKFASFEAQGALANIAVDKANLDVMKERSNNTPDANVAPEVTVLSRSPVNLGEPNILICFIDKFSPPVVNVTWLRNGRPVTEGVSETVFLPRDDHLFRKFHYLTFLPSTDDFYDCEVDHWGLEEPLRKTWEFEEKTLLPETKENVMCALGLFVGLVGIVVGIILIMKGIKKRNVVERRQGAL
T1 sequence (P01915 27-264 limits assumed): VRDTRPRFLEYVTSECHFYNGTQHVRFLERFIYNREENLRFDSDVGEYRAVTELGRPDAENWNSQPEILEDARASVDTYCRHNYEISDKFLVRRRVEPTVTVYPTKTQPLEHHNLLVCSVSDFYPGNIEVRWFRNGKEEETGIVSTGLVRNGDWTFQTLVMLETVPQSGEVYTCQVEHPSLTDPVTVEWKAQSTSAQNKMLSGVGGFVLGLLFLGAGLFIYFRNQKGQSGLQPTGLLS
Experimental: (§1) Examples 1-4 (Tables 1-18) will be briefly considered in order to establish the concept of tolerance discussed above. These examples describe experimental results observed in the so-called “simultaneous” assay. In the simultaneous assay four principle components are cultured together for a 24 hour period. The components of this culture, which are added simultaneously, are: (a) an antigenic peptide characterized by the ability to bind specifically into the antigenic peptide binding groove of an MHC class II molecule, (b) mitomycin C-treated, MHC class II-positive antigen presenting cells (APC) bearing the MHC class II allele required for binding of the specific antigenic peptide, and presentation of the specific antigenic peptide to the antigenic peptide-specific T cell hybridoma, (c) an effector compound of the present invention, and (d) an MHC class II allele-restricted T cell hybridoma specific for the antigenic peptide and the MHC class II allele restricting its presentation. Following incubation of this primary culture, an aliquot of its supernatant is transferred into a second culture well for incubation with an interleukin-dependent lymphoblastoid cell line. The degree of stimulation of that second, indicator cell by the interleukins which had been released from the activated T cell hybridoma in the primary culture is measured by quantitating tritiated thymidine deoxyribose {[^3H]TdR} uptake into the DNA of the HT-2 indicator cells of that second culture.
(§2) In the “simultaneous assay” the four components of the assay are cultured together for a 24 h period. The components of this primary culture, added at the same time or simultaneously, are: (a) the antigenic peptide, (b) mitomycin C-treated, MHC class II-positive antigen presenting cells (APC) with the MHC class II allele required for binding of the specific antigenic peptide and its presentation to the antigenic peptide-specific T cell hybridoma, (c) an AE101 series effector peptide, and (d) MHC class II allele-restricted T cell hybridoma specific for the antigenic peptide and the MHC class II allele restricting its presentation. At the end of the incubation of this primary culture, an aliquot of its supernatant is transferred into a second culture well for incubation with an interleukin-dependent lymphoblastoid cell line. The degree of stimulation of that second, indicator cell by the interleukins which had been released from the activated T cell hybridoma in the primary culture is measured by quantitating tritiated thymidine deoxyribose {[^3H]TdR} uptake into the DNA of the HT-2 indicator cells of that second culture.
(§3) For these various assays, the following antigenic peptides were used: HEL11-25, hen egg lysozyme 11-25, AMKRHGLDNYRGYSL(A^d) (SEQ ID NO:5); HEL46-61, hen egg lysozyme 46-61, NTDGSTDYGILQINSR(Ak) (SEQ ID NO:6); HEL106-116, hen egg lysozyme 106-116, NAWVAWRNRCK (E^d) (SEQ ID NO:7); PGCC81-104, pigeon cytochrome c 81-104, […] (Ek) (SEQ ID NO:8), and THMCC82-103, tobacco hornworm moth cytochrome c 82-103, […] (Ek) (SEQ ID NO:9). AE101 series peptides were obtained from commercial sources. In general, the purity and composition of each peptide was confirmed by HPLC separation and mass spectrometry. The native protein antigens were HEL, hen egg lysozyme, and PGCC, pigeon cytochrome C. They were obtained from commercial sources.
(§4) For the experiments of these Examples, several T cell hybridomas, which are specific for certain antigenic peptides, were used. The TPc9.1 T hybridoma is specific for pigeon cytochrome C 81-104 peptide presented on the murine class II MHC allele E^k. The TPc9.1 hybridoma responds heteroclitically to tobacco hornworm moth cytochrome c 82-103 on E^k. The 3A9 T hybridoma is specific for hen egg lysozyme 46-61 on A^k. The 9.30.B2 hybridoma is specific for hen egg lysozyme 11-25 on A^d, and the G28.C9 hybridoma is specific for hen egg lysozyme 106-116 on E^d. […]

[2] = test system: murine E^k MHC class II allele; test: simultaneous assay, E^k allele (CH27 APC, TPc9.1 T hybridoma, THMCC82-103 or PGCC81-104); format: cell-based; settings: for Times Baseline Response, Ek: Table 3, values reduced relative to E^d by a factor of 10
Experimental: as §1, §2, §3, §4

[3] = Table 1, AE peptide 16 μM (second value), 0.4 μM HEL106-116, supernatant 1:4
[4] = Table 1, AE peptide 64 μM (first value), 0.4 μM HEL106-116, supernatant 1:4
[5] = Table 1, AE peptide 16 μM (second value), 0.075 μM THMCC82-103, supernatant 1:2
[6] = Table 1, AE peptide 64 μM (first value), 0.075 μM THMCC82-103, supernatant 1:2
[7] = Table 5, AE peptide 64 μM, supernatant 1:4
[8] = Table 5, AE peptide 64 μM, supernatant 1:4, normalized to E^d by a factor of 10
[9] = Table 6, AE peptide 64 μM, supernatant 1:4
[10] = Table 6, AE peptide 64 μM, supernatant 1:4, reduced by a factor of 5
[11] = Table 9, AE peptide 64 μM, supernatant 1:4
[12] = Table 9, AE peptide 64 μM, supernatant 1:4, normalized by a factor of 5
[13] = Table 10, AE peptide 16 μM (second value), supernatant 1:2
[14] = Table 10, AE peptide 64 μM (first value), supernatant 1:2
[15] = Table 10, AE peptide 64 μM, supernatant 1:2 (first value)
[16] = Table 10, AE peptide 64 μM, supernatant 1:4 (second value)
[17] = AE peptide 64 μM, supernatant 1:4
[18] = Table 12, AE peptide 1 μM (fourth value), supernatant 1:2
[19] = Table 12, AE peptide 4 μM (third value), supernatant 1:2
[20] = Table 12, AE peptide 16 μM (second value), supernatant 1:2
[21] = Table 12, AE peptide 64 μM (first value), supernatant 1:2
[22] = Table 12, AE peptide 1 μM (fourth value), supernatant 1:4
[23] = Table 12, AE peptide 4 μM (third value), supernatant 1:4
[24] = Table 12, AE peptide 16 μM (second value), supernatant 1:4
[25] = Table 12, AE peptide 64 μM (first value), supernatant 1:4

Ac-YRMKLPKSA-NH2 [AE111]
Times Baseline Response, E^d [1, 3]: 18.8 | Times Baseline Response, E^d [1, 4]: 39.2 | Times Baseline Response, E^k [2, 5]: 2.0 | Times Baseline Response, E^k [2, 6]: 7.2

Ac-LR E KLPK-NH2 [AE201]
Times Baseline Response, E^d [1, 7]: 7.0 | Times Baseline Response, E^k [2, 8]: 3.4

Ac-LRM Q LPK-NH2 [AE217]
Times Baseline Response, E^d [1, 9]: 4.0 | Times Baseline Response, E^k [2, 10]: 4.4

Ac-LRMKLP[Orn]-NH2 [AE240]
Times Baseline Response, E^d [1, 11]: 9.8 | Times Baseline Response, E^k [2, 12]: 11.5

Ac-LR Y KLPK-NH2 [AE205]
Times Baseline Response, E^d [1, 7]: 13.9 | Times Baseline Response, E^k [2, 8]: 27.4

Ac-LRMKLP D-NH2 [AE244]
Times Baseline Response, E^d [1, 11]: 0.9 | Times Baseline Response, E^k [2, 12]: 2.7

Ac-YRMKLPKAAK-NH2 [AE127]
Times Baseline Response, E^d [1, 13]: 12.4 | Times Baseline Response, E^d [1, 14]: 19.1 | Times Baseline Response, E^k [2, 15]: 63.6 | Times Baseline Response, E^k [2, 16]: 63.4

Ac-LR[Cit]KLPK-NH2 [AE196]
Times Baseline Response, E^d [1, 7]: 13.6 | Times Baseline Response, E^k [2, 8]: 18.4

Ac-YRMKLAKSAK-NH2 [AE125]
Times Baseline Response, E^d [1, 13]: 1.7 | Times Baseline Response, E^d [1, 14]: 2.0 | Times Baseline Response, E^k [2, 15]: 38.7 | Times Baseline Response, E^k [2, 16]: 32.8

Ac-LR D KLPK-NH2 [AE200]
Times Baseline Response, E^d [1, 7]: 8.3 | Times Baseline Response, E^k [2, 8]: 3.9

RMKLPKSAKPVSQMR [AE102]
Times Baseline Response, E^d [1, 3]: 4.2 | Times Baseline Response, E^d [1, 4]: 13.3 | Times Baseline Response, E^k [2, 5]: 0.8 | Times Baseline Response, E^k [2, 6]: 1.0

Ac-LRMKLP Y-NH2 [AE249]
Times Baseline Response, E^d [1, 11]: 12.2 | Times Baseline Response, E^k [2, 12]: 17.1

Ac-LRM[Orn]LPK-NH2 [AE210]
Times Baseline Response, E^d [1, 9]: 6.6 | Times Baseline Response, E^k [2, 10]: 9.0

Ac-YRMKLPASAK-NH2 [AE126]
Times Baseline Response, E^d [1, 13]: 6.8 | Times Baseline Response, E^d [1, 14]: 18.2 | Times Baseline Response, E^k [2, 15]: 53.4 | Times Baseline Response, E^k [2, 16]: 56.4

Ac-YRMKAPKSAK-NH2 [AE124]
Times Baseline Response, E^d [1, 13]: 7.3 | Times Baseline Response, E^d [1, 14]: 12.5 | Times Baseline Response, E^k [2, 15]: 66.0 | Times Baseline Response, E^k [2, 16]: 65.9

Ac-LRM D LPK-NH2 [AE214]
Times Baseline Response, E^d [1, 9]: 0.8 | Times Baseline Response, E^k [2, 10]: 0.4

Ac-E RMKLPK-NH2 [AE186]
Times Baseline Response, Ed [1, 17]: 2.5 | Times Baseline Response, Ek [2, 17]: 1.3

Ac-F RMKLPK-NH2 [AE189]
Times Baseline Response, Ed [1, 17]: 12.1 | Times Baseline Response, Ek [2, 17]: 18.2

Ac-lrmklpk-NH2 [AE170]
Times Baseline Response, E^d [1, 18]: 1.3 | Times Baseline Response, E^d [1, 19]: 1.3 | Times Baseline Response, E^d [1, 20]: 1.2 | Times Baseline Response, E^d [1, 21]: 1.1 | activity in simultaneous assay on E^d and E^k, in words [1]: inactive | Times Baseline Response, E^k [2, 22]: 1.7 | Times Baseline Response, E^k [2, 23]: 2.1 | Times Baseline Response, E^k [2, 24]: 2.4 | Times Baseline Response, E^k [2, 25]: 2.8

Ac-LRMKLP Q-NH2 [AE247]
Times Baseline Response, E^d [1, 11]: 4.5 | Times Baseline Response, E^k [2, 12]: 10.9

Ac-LR H KLPK-NH2 [AE198]
Times Baseline Response, E^d [1, 7]: 16.1 | Times Baseline Response, E^k [2, 8]: 18.7

Ac-[Orn]RMKLPK-NH2 [AE180]
Times Baseline Response, Ed [1, 17]: 12.6 | Times Baseline Response, Ek [2, 17]: 10.8

Ac-LRM H LPK-NH2 [AE213]
Times Baseline Response, E^d [1, 9]: 6.1 | Times Baseline Response, E^k [2, 10]: 5.7

Ac-LRMKLP M-NH2 [AE250]
Times Baseline Response, E^d [1, 11]: 13.9 | Times Baseline Response, E^k [2, 12]: 21.3

Ac-LRMKLP HArg-NH2 [AE242]
Times Baseline Response, E^d [1, 11]: 8.0 | Times Baseline Response, E^k [2, 12]: 17.6

Ac-H RMKLPK-NH2 [AE183]
Times Baseline Response, Ed [1, 17]: 10.3 | Times Baseline Response, Ek [2, 17]: 17.3

Ac-YRAKLPKSAK-NH2 [AE122]
Times Baseline Response, E^d [1, 13]: 9.2 | Times Baseline Response, E^d [1, 14]: 16.2 | Times Baseline Response, E^k [2, 15]: 46.2 | Times Baseline Response, E^k [2, 16]: 41.4

Ac-kplkmrl-NH2 [AE171]
Times Baseline Response, E^d [1, 18]: 1.4 | Times Baseline Response, E^d [1, 19]: 1.4 | Times Baseline Response, E^d [1, 20]: 1.5 | Times Baseline Response, E^d [1, 21]: 1.3 | activity in simultaneous assay on E^d and E^k, in words [1]: inactive | Times Baseline Response, E^k [2, 22]: 1.9 | Times Baseline Response, E^k [2, 23]: 1.4 | Times Baseline Response, E^k [2, 24]: 2.0 | Times Baseline Response, E^k [2, 25]: 3.6

Ac-LRM F LPK-NH2 [AE218]
Times Baseline Response, E^d [1, 9]: 3.1 | Times Baseline Response, E^k [2, 10]: 9.0
